Reference: ChEMBL document CHEMBL4390652, “Design, biological evaluation and X-ray crystallography of nanomolar multifunctional ligands targeting simultaneously acetylcholinesterase and glycogen synthase kinase-3” (Eur J Med Chem, 2019)

Legend:
[1] = test system: ALK tyrosine kinase receptor (Homo sapiens), Q9UM73 [C1156Y]; assay: Binding affinity to wild-type human partial length ALK C1156Y mutant (I1088 to E1409 residues) expressed in mammalian expression system assessed as residual binding level at 10 uM by Kinomescan method relative to control
[2] = molecular target: Serine/threonine-protein kinase Sgk3 (Homo sapiens) (UniProt Q96BR1); assay: Binding affinity to wild-type human partial length SGK3 (M119 to L496 residues) expressed in mammalian expression system assessed as residual binding level at 10 uM by Kinomescan method relative to control
Serine/threonine-protein kinase Sgk3 (Homo sapiens), sequence (Q96BR1 whole entry, the tested form may be a part): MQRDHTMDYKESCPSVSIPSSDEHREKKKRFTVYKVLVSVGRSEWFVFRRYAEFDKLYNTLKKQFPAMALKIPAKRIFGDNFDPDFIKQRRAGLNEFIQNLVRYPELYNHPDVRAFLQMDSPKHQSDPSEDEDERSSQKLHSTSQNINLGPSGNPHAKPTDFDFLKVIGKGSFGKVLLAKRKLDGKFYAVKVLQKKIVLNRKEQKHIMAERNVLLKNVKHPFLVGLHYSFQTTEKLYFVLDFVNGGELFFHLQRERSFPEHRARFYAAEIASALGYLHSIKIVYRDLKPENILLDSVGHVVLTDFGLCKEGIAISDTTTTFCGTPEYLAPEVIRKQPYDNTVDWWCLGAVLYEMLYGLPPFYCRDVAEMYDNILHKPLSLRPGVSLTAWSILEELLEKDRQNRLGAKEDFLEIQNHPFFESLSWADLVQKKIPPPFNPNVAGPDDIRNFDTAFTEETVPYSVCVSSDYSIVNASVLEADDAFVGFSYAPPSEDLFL

[3] = test system: Receptor-type tyrosine-protein kinase FLT3 (Homo sapiens), P36888 [R834Q]; assay: Binding affinity to human partial length FLT3 R834Q mutant (V592 to Y969 residues) expressed in mammalian expression system assessed as residual binding level at 10 uM by Kinomescan method relative to control
[4] = molecular target: 5'-AMP-activated protein kinase catalytic subunit alpha-2 (Homo sapiens) (UniProt P54646); assay: Binding affinity to wild-type human partial length AMPK alpha2 (M1 to E306 residues) expressed in bacterial expression system assessed as residual binding level at 10 uM by Kinomescan method relative to control
5'-AMP-activated protein kinase catalytic subunit alpha-2 (Homo sapiens), sequence (P54646 whole entry, looked up, the tested form may be a part): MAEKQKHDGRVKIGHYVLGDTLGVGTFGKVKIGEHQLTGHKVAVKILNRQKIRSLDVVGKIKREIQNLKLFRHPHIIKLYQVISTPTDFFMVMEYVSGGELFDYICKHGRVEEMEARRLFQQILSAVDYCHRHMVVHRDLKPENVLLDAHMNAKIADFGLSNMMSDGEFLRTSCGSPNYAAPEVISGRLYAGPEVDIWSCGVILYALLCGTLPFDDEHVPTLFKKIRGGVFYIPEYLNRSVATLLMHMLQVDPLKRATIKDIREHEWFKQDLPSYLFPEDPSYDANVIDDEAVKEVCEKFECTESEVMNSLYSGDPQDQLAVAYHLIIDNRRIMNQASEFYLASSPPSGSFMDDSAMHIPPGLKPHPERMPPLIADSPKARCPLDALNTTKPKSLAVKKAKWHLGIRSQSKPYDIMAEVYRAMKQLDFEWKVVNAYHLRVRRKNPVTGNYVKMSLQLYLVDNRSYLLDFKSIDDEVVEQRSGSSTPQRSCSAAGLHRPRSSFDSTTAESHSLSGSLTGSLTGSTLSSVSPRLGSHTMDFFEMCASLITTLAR

[5] = molecular target: Macrophage-stimulating protein receptor (Homo sapiens) (UniProt Q04912); assay: Binding affinity to wild-type human partial length MST1R (I1057 to L1363 residues) expressed in bacterial expression system assessed as residual binding level at 10 uM by Kinomescan method relative to control
[6] = molecular target: Mitogen-activated protein kinase kinase kinase 14 (Homo sapiens) (UniProt Q99558); assay: Binding affinity to wild-type human partial length NIK (L318 to P947 residues) expressed in mammalian expression system assessed as residual binding level at 10 uM by Kinomescan method relative to control
[7] = molecular target: Dual serine/threonine and tyrosine protein kinase (Homo sapiens) (UniProt Q6XUX3); assay: Binding affinity to wild-type human full length RIPK5 (M1 to T929 residues) expressed in mammalian expression system assessed as residual binding level at 10 uM by Kinomescan method relative to control
Dual serine/threonine and tyrosine protein kinase (Homo sapiens), sequence (Q6XUX3 whole entry, the tested form may be a part): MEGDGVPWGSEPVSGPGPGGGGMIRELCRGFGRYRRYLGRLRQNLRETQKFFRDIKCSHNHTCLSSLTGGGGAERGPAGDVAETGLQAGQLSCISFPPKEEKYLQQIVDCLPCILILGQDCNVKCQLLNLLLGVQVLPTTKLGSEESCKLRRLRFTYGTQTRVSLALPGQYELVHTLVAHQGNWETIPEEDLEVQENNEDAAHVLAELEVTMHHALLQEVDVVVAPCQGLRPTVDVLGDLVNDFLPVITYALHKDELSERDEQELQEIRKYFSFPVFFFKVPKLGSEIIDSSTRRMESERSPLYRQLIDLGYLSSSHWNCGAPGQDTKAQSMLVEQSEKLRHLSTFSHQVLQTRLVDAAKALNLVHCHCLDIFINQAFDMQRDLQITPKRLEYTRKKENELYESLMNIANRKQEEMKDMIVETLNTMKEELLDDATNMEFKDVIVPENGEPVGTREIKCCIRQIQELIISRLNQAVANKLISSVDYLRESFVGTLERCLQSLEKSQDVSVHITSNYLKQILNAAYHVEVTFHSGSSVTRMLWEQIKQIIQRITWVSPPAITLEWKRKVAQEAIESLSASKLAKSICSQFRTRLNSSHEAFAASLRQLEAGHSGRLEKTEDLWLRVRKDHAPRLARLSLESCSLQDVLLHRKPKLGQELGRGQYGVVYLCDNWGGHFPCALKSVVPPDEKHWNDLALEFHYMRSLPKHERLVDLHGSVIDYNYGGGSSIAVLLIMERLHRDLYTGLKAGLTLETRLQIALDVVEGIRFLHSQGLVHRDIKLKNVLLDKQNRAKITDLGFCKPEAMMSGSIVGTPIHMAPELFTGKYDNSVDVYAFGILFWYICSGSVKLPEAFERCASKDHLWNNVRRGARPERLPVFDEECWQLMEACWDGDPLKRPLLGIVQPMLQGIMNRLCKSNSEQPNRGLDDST

[8] = test system: Epidermal growth factor receptor (Homo sapiens), P00533 [L861Q]; assay: Binding affinity to human partial length EGFR L861Q mutant (R669 to V1011 residues) expressed in bacterial expression system assessed as residual binding level at 10 uM by Kinomescan method relative to control
[9] = test system: Tyrosine-protein kinase ABL1 (Homo sapiens), P00519 [M351T]; assay: Binding affinity to human phosphorylated ABL1 M351T mutant (S229 to K512 residues) expressed in mammalian expression system assessed as residual binding level at 10 uM by Kinomescan method relative to control
[10] = molecular target: BMP-2-inducible protein kinase (Homo sapiens) (UniProt Q9NSY1); assay: Binding affinity to wild-type human partial length BIKE (S34 to N329 residues) expressed in bacterial expression system assessed as residual binding level at 10 uM by Kinomescan method relative to control
[11] = molecular target: Tyrosine-protein kinase Yes (Homo sapiens) (UniProt P07947); assay: Binding affinity to wild-type human partial length YES (T257 to L543 residues) expressed in bacterial expression system assessed as residual binding level at 10 uM by Kinomescan method relative to control
Tyrosine-protein kinase Yes (Homo sapiens), sequence (P07947 2-543 limits assumed): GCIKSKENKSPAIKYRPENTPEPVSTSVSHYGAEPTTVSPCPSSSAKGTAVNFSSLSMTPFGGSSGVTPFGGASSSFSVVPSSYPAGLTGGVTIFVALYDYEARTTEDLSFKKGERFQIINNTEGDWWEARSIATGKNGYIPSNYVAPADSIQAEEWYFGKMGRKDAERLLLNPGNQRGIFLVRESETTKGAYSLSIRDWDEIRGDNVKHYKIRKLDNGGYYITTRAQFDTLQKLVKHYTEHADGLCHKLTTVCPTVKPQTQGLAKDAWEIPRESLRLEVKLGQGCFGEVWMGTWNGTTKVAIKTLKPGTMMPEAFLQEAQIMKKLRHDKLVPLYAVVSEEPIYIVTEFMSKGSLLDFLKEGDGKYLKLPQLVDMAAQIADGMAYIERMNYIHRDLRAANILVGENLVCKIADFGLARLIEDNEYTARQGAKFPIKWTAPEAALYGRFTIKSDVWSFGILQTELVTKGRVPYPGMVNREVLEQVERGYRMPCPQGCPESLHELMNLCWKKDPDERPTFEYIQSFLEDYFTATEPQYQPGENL

HCT-116 = assay: Cytotoxicity against human HCT116 cells assessed as growth inhibition incubated for 48 hrs by Hoechst 33342 staining based assay; assay type: cell-based; settings: HCT-116, 48 h
[12] = molecular target: Serine/threonine-protein kinase Sgk2 (Homo sapiens) (UniProt Q9HBY8); assay: Binding affinity to wild-type human partial length SGK2 (L54 to C427 residues) expressed in mammalian expression system assessed as residual binding level at 10 uM by Kinomescan method relative to control
Serine/threonine-protein kinase Sgk2 (Homo sapiens), sequence (Q9HBY8 whole entry, the tested form may be a part): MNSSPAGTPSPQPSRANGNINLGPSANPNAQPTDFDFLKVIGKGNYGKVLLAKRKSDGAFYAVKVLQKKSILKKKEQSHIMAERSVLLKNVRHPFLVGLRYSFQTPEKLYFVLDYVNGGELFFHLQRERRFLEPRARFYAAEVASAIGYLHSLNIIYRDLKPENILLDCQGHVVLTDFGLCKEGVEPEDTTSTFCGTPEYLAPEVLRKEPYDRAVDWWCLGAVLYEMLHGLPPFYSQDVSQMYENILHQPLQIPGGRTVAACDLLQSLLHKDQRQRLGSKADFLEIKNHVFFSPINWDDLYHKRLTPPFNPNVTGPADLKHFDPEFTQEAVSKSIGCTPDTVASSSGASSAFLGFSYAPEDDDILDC

[13] = molecular target: Phosphatidylinositol 4-kinase beta (Homo sapiens) (UniProt Q9UBF8); assay: Binding affinity to wild-type human full length PIK4CB (M1 to M828 residues) expressed in mammalian expression system assessed as residual binding level at 10 uM by Kinomescan method relative to control
[14] = molecular target: Tyrosine-protein kinase Lyn (Homo sapiens) (UniProt P07948); assay: Binding affinity to wild-type human partial length LYN (C219 to Q511 residues) expressed in bacterial expression system assessed as residual binding level at 10 uM by Kinomescan method relative to control
[15] = molecular target: Ephrin type-B receptor 3 (Homo sapiens) (UniProt P54753); assay: Binding affinity to wild-type human partial length EPHB3 (Q599 to T928 residues) expressed in bacterial expression system assessed as residual binding level at 10 uM by Kinomescan method relative to control
[16] = molecular target: Vascular endothelial growth factor receptor 3 (Homo sapiens) (UniProt P35916); assay: Binding affinity to wild-type human partial length FLT4 (E821 to E1196 residues) expressed in bacterial expression system assessed as residual binding level at 10 uM by Kinomescan method relative to control
[17] = molecular target: Calcium/calmodulin-dependent protein kinase type 1B (Homo sapiens) (UniProt Q6P2M8); assay: Binding affinity to wild-type human partial length CAMK1B (W9 to A311 residues) expressed in mammalian expression system assessed as residual binding level at 10 uM by Kinomescan method relative to control
Calcium/calmodulin-dependent protein kinase type 1B (Homo sapiens), sequence (Q6P2M8 whole entry, the tested form may be a part, canonical isoform): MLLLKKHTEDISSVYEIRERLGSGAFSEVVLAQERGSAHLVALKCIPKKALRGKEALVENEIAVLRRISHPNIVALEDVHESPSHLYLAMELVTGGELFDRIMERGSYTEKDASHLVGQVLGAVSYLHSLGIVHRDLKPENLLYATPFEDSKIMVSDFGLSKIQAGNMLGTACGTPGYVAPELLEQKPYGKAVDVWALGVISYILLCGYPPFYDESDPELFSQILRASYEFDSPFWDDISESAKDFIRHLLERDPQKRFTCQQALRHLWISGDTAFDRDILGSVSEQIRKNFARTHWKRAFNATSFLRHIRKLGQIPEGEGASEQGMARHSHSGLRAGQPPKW

[18] = molecular target: Casein kinase I isoform delta (Homo sapiens) (UniProt P48730); assay: Binding affinity to wild-type human full length CSNK1D (M1 to K409 residues) expressed in bacterial expression system assessed as residual binding level at 10 uM by Kinomescan method relative to control
[19] = molecular target: Serine/threonine-protein kinase 32B (Homo sapiens) (UniProt Q9NY57); assay: Binding affinity to wild-type human full length YANK2 (M1 to S414 residues) expressed in bacterial expression system assessed as residual binding level at 10 uM by Kinomescan method relative to control
[20] = molecular target: Dual specificity mitogen-activated protein kinase kinase 4 (Homo sapiens) (UniProt P45985); assay: Binding affinity to wild-type human partial length MEK4 (S84 to D399 residues) expressed in mammalian expression system assessed as residual binding level at 10 uM by Kinomescan method relative to control
Dual specificity mitogen-activated protein kinase kinase 4 (Homo sapiens), sequence (P45985 whole entry, the tested form may be a part): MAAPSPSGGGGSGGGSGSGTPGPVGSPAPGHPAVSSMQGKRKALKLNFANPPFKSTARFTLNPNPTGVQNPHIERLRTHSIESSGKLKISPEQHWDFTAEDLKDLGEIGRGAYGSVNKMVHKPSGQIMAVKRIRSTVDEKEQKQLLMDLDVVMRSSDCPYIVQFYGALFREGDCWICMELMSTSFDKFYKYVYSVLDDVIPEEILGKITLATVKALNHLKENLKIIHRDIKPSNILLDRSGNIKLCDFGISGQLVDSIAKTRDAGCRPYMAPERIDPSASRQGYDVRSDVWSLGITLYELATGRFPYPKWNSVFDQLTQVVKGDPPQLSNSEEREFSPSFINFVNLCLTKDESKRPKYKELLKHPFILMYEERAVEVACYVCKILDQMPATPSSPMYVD

[21] = molecular target: Ankyrin repeat and protein kinase domain-containing protein 1 (Homo sapiens) (UniProt Q8NFD2); assay: Binding affinity to wild-type human partial length ANKK1 (M1 to A305 residues) expressed in mammalian expression system assessed as residual binding level at 10 uM by Kinomescan method relative to control
Ankyrin repeat and protein kinase domain-containing protein 1 (Homo sapiens), sequence (Q8NFD2 whole entry, the tested form may be a part): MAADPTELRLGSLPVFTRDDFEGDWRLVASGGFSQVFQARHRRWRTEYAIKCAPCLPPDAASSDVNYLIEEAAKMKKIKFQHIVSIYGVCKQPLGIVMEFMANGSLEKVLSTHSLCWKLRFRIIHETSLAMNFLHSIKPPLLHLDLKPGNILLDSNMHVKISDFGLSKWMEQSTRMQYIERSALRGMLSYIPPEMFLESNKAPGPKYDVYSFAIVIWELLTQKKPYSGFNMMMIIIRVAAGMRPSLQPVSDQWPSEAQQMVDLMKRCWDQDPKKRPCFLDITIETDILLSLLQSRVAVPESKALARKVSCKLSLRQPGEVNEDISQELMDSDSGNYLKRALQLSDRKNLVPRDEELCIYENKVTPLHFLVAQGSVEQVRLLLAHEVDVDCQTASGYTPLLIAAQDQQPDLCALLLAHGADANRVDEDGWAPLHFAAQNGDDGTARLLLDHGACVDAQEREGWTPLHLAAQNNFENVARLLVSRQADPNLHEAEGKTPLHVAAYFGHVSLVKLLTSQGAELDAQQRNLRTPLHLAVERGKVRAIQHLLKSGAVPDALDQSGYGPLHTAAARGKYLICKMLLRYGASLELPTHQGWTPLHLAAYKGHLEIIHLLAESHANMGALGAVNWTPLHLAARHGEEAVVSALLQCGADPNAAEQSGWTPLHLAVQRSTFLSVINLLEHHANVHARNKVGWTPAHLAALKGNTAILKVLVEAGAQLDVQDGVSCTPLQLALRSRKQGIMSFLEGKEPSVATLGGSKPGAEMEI

[22] = molecular target: Mitogen-activated protein kinase kinase kinase kinase 5 (Homo sapiens) (UniProt Q9Y4K4); assay: Binding affinity to wild-type human partial length MAP4K5 (M1 to P297 residues) expressed in bacterial expression system assessed as residual binding level at 10 uM by Kinomescan method relative to control
[23] = molecular target: Tyrosine-protein kinase ITK/TSK (Homo sapiens) (UniProt Q08881); assay: Binding affinity to wild-type human partial length ITK (R335 to L620 residues) expressed in bacterial expression system assessed as residual binding level at 10 uM by Kinomescan method relative to control
Tyrosine-protein kinase ITK/TSK (Homo sapiens), sequence (Q08881 whole entry, the tested form may be a part): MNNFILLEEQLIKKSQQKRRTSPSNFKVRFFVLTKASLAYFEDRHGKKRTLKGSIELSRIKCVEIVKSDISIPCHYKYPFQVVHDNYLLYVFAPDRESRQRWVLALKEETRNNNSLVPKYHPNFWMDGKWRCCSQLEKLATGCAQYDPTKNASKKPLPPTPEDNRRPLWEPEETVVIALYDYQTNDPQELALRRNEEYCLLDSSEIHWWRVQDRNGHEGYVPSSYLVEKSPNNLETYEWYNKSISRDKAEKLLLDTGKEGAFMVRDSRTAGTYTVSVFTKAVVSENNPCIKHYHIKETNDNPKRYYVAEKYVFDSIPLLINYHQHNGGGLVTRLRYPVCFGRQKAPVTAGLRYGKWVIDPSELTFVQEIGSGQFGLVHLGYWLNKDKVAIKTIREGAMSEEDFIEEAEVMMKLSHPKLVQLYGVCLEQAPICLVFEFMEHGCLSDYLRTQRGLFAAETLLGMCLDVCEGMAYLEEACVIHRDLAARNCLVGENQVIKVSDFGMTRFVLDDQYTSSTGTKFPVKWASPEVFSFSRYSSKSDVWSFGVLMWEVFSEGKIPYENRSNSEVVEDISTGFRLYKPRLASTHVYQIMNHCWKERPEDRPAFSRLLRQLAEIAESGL

[24] = molecular target: Mitogen-activated protein kinase 9 (Homo sapiens) (UniProt P45984); assay: Binding affinity to wild-type human full length JNK2 (M1 to Q382 residues) expressed in mammalian expression system assessed as residual binding level at 10 uM by Kinomescan method relative to control

SMILES: O=C(Nc1cc(-c2cn(CCNc3c4c(nc5ccccc35)CCCC4)nn2)ccn1)Nc1cccc2c1C1CCCCN1C2=O (racemic)
- Activity [1]: 100%
- Activity [2]: 1.3%
- Activity [3]: 1.3%
- Activity [4]: 15%
- Activity [5]: 89%
- Activity [6]: 28%
- Activity [7]: 49%
- Activity [8]: 67%
- Activity [9]: 2.1%
- Activity [10]: 2.3%
- Activity [11]: 76%
- IC50 (HCT-116): 3000 nM
- Activity [12]: 10%
- Activity [13]: 28%
- Activity [14]: 83%
- Activity [15]: 100%
- Activity [16]: 2.7%
- Activity [17]: 100%
- Activity [18]: 2.8%
- Activity [19]: 100%
- Activity [20]: 100%
- Activity [21]: 93%
- Activity [22]: 25%
- Activity [23]: 82%
- Activity [24]: 2.6%
